# Experimental data taken from US20250171495A1, “MUTLI-TARGETED SERINE PROTEASE INHIBITORS FOR TREATMENT OF CANCER AND VIRAL INFECTION” (Washington University, priority 2023, published 2025).
# pIC50: −log10 of the molar value. “And” between values parts separate entries of the source, which are not always exact repeats. Equal values may be shown once.
# Assays:
# Type in all cases: biochemical
# [1] = molecular target: T1, TMPRSS2 (Homo sapiens, UniProt O15393); assay: Fluorogenic kinetic enzyme inhibitor assay, TMPRSS2; parameters: purchased Cusabio Technology CSB-YP023924HU; conditions: read-out: TMPRSS2 IC50
# Target sequence in this assay (O15393 106-492 limits assumed): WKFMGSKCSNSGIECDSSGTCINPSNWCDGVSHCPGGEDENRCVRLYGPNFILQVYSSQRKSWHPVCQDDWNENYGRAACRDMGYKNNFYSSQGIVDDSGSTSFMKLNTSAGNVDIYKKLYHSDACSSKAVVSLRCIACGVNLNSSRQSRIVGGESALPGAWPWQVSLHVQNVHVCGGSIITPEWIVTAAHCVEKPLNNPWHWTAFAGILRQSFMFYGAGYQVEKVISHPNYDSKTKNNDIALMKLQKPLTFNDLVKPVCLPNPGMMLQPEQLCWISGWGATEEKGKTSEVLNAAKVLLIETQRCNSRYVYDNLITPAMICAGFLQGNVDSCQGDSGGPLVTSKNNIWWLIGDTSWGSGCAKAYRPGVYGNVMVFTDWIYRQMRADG
# [2] = molecular target: T2, HGFA (Homo sapiens, UniProt Q04756); assay: HyCoSuL P4-P2 substrate specificity screening, HGFA; conditions: for P2 Position Substrate Activity for HGFA (percent substrate cleavage/proteolysis): residue fixed at P2 position; for P3 Position Various Amino Acids Substrate Activity, HGFA (percent substrate cleavage/proteolysis): residue fixed at P3 position of substrate library; for P4 Position Various Amino Acids Substrate Activity, HGFA (percent substrate proteolysis/cleavage): residue fixed at P4 position of substrate library
# T2 sequence (Q04756 373-655): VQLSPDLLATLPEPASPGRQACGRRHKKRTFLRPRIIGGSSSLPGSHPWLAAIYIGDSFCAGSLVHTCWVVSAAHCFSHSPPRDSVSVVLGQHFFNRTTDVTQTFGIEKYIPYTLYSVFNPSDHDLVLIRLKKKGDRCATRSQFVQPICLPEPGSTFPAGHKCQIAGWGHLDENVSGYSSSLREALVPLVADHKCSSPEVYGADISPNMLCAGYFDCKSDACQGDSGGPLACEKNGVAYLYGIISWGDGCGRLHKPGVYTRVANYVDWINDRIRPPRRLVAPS
# [3] = molecular target: T1, TMPRSS2; assay: PS-SCL / HyCoSuL substrate specificity screening, TMPRSS2; conditions: for P2 Position Substrate Activity for TMPRSS2 (percent substrate cleavage/proteolysis): residue fixed at P2 position of substrate library
# Target sequence in this assay (O15393 whole entry): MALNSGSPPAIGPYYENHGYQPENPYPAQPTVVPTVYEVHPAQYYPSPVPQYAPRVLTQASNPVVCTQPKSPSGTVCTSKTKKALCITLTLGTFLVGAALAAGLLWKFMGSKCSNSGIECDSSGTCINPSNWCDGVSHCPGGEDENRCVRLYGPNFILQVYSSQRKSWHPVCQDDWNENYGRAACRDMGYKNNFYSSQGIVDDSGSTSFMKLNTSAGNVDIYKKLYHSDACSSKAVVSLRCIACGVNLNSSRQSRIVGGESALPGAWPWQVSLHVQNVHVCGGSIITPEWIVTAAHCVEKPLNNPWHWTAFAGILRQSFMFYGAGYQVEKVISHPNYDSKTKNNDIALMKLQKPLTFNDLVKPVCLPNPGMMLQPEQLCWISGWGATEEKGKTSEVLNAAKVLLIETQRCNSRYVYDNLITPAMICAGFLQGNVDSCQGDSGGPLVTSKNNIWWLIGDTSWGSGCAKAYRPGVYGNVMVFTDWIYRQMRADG
# [4] = molecular target: T3, hepsin (Homo sapiens, UniProt P05981); assay: HyCoSuL P4-P2 substrate specificity screening, hepsin; conditions: for P2 Position Substrate Activity for hepsin (percent substrate cleavage/proteolysis): residue fixed at P2 position; for P3 Position Various Amino Acids Substrate Activity, hepsin (percent substrate cleavage/proteolysis): residue fixed at P3 position of substrate library; for P4 Position Various Amino Acids Substrate Activity, hepsin (percent substrate proteolysis/cleavage): residue fixed at P4 position of substrate library
# T3 construct: purchased R&D Systems 4776-SE-010
# [5] = molecular target: T4, matriptase (Homo sapiens, UniProt Q9Y5Y6); assay: HyCoSuL P4-P2 substrate specificity screening, matriptase; conditions: for P2 Position Substrate Activity for matriptase (percent substrate cleavage/proteolysis): residue fixed at P2 position; for P3 Position Various Amino Acids Substrate Activity, matriptase (percent substrate cleavage/proteolysis): residue fixed at P3 position of substrate library; for P4 Position Various Amino Acids Substrate Activity, matriptase (percent substrate proteolysis/cleavage): residue fixed at P4 position of substrate library
# T4 sequence (Q9Y5Y6 1-855): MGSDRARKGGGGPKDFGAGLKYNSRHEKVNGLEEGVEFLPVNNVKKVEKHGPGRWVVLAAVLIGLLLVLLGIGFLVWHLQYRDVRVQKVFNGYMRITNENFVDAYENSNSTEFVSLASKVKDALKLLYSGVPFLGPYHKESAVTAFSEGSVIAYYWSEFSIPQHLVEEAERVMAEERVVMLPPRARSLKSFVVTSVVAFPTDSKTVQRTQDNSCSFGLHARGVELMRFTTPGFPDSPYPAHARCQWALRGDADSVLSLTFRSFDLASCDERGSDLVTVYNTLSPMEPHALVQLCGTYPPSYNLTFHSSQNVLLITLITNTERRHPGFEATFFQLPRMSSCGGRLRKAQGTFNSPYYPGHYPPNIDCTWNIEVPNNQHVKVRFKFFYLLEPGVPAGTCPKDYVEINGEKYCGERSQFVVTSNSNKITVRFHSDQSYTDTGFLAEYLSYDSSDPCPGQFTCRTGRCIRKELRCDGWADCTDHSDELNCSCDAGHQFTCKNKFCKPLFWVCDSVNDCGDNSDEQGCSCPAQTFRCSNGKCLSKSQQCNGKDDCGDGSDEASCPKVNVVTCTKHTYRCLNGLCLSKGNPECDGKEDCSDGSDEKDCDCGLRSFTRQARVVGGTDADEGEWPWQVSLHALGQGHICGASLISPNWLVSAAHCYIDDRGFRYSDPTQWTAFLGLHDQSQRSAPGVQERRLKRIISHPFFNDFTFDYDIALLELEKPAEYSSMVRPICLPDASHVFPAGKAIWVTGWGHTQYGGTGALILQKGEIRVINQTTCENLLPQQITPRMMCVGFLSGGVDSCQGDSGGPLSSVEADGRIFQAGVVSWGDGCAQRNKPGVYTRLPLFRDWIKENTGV
# [6] = P1-Arg HyCoSuL, 100 μM, best recognized amino acid set to 100%
# [7] = best recognized amino acid set to 100%
# [8] = residue fixed at P3 position of substrate library
# [9] = residue fixed at P4 position of substrate library
# [10] = residue fixed at P3 position, P1-Arg HyCoSuL, 100 μM, best recognized amino acid set to 100%
# [11] = residue fixed at P4 position, P1-Arg HyCoSuL, 100 μM, best recognized amino acid set to 100%
# T3 sequence (P05981 163-417 limits assumed): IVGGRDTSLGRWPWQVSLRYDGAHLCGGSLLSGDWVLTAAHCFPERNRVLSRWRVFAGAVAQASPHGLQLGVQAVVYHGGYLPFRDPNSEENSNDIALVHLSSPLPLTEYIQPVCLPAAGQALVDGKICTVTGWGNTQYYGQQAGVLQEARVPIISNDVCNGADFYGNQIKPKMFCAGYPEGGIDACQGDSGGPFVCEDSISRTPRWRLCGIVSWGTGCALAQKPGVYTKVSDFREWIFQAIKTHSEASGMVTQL
# T3 sequence (P05981 1-162 partner limits assumed): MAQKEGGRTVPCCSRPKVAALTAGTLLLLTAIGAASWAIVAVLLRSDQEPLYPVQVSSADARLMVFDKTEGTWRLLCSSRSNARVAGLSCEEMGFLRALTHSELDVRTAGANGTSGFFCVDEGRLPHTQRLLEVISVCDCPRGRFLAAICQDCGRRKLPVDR
"P2 Position Substrate Activity for HGFA (percent substrate cleavage/proteolysis) [2, 6] [%]","P3 Position Various Amino Acids Substrate Activity, HGFA (percent substrate cleavage/proteolysis) [2] [%]","P4 Position Various Amino Acids Substrate Activity, HGFA (percent substrate proteolysis/cleavage) [2] [%]","P2 Position Substrate Activity for TMPRSS2 (percent substrate cleavage/proteolysis) [3, 7] [%]","P3 Position Various Amino Acids Substrate Activity, TMPRSS2 (percent substrate cleavage/proteolysis) [3, 8] [%]","P4 Position Various Amino Acids Substrate Activity, TMPRSS2 (percent substrate proteolysis/cleavage) [3, 9] [%]","P2 Position Substrate Activity for hepsin (percent substrate cleavage/proteolysis) [4, 6] [%]","P3 Position Various Amino Acids Substrate Activity, hepsin (percent substrate cleavage/proteolysis) [4] [%]","P4 Position Various Amino Acids Substrate Activity, hepsin (percent substrate proteolysis/cleavage) [4] [%]","P2 Position Substrate Activity for matriptase (percent substrate cleavage/proteolysis) [5, 6] [%]","P3 Position Various Amino Acids Substrate Activity, matriptase (percent substrate cleavage/proteolysis) [5] [%]","P4 Position Various Amino Acids Substrate Activity, matriptase (percent substrate proteolysis/cleavage) [5] [%]",Molecule,pIC50 [1],further results
8.87,14.51,7.67,22.02,39.80,21.84,70.75,35.34,29.29,15,31,14,L-Thr,–,–
4.04,17.50,8.78,33.05,22.96,24.62,6.00,0.00,6.82,32,11,9,L-Trp,–,–
5.83,–,–,13.07,–,–,57.96,–,–,16,44,86,L-hArg,–,"P3 Position Substrate Activity for HGFA (percent substrate cleavage/proteolysis) [2, 10]: 100.00%; P4 Position Substrate Activity for HGFA (percent substrate cleavage/proteolysis) [2, 11]: 22.07%; P3 Position Substrate Activity for TMPRSS2 (percent substrate cleavage/proteolysis) ([3]; residue fixed at P3 position of substrate library, best recognized amino acid set to 100%): 18.34%; P4 Position Substrate Activity for TMPRSS2 (percent substrate cleavage/proteolysis) ([3]; residue fixed at P4 position of substrate library, best recognized amino acid set to 100%): 44.91%; P3 Position Substrate Activity for hepsin (percent substrate cleavage/proteolysis) [4, 10]: 47.00%; P4 Position Substrate Activity for hepsin (percent substrate cleavage/proteolysis) [4, 11]: 56.24%; P3 Position Substrate Activity for matriptase (percent substrate cleavage/proteolysis) [5, 10]: 44.42%; P4 Position Substrate Activity for matriptase (percent substrate cleavage/proteolysis) [5, 11]: 76.43% and 86.17%"

# Second part, the molecule before the results:
Molecule,"P2 Position Substrate Activity for HGFA (percent substrate cleavage/proteolysis) [2, 6] [%]","P3 Position Various Amino Acids Substrate Activity, HGFA (percent substrate cleavage/proteolysis) [2] [%]","P4 Position Various Amino Acids Substrate Activity, HGFA (percent substrate proteolysis/cleavage) [2] [%]","P2 Position Substrate Activity for TMPRSS2 (percent substrate cleavage/proteolysis) [3, 7] [%]","P3 Position Various Amino Acids Substrate Activity, TMPRSS2 (percent substrate cleavage/proteolysis) [3, 8] [%]","P4 Position Various Amino Acids Substrate Activity, TMPRSS2 (percent substrate proteolysis/cleavage) [3, 9] [%]","P2 Position Substrate Activity for hepsin (percent substrate cleavage/proteolysis) [4, 6] [%]","P3 Position Various Amino Acids Substrate Activity, hepsin (percent substrate cleavage/proteolysis) [4] [%]","P4 Position Various Amino Acids Substrate Activity, hepsin (percent substrate proteolysis/cleavage) [4] [%]","P2 Position Substrate Activity for matriptase (percent substrate cleavage/proteolysis) [5, 6] [%]","P3 Position Various Amino Acids Substrate Activity, matriptase (percent substrate cleavage/proteolysis) [5] [%]","P4 Position Various Amino Acids Substrate Activity, matriptase (percent substrate proteolysis/cleavage) [5] [%]",pIC50 [1],further results
"CCC(C)[C@H](NC(C)=O)C(=O)N[C@@H](CCC(=O)O)C(=O)N[C@@H](Cc1ccccc1)C(=O)N[C@H](CCCNC(=N)N)C(=O)c1nc2ccccc2s1 (stereo partly drawn) [MM4037-1, (S)-4-[(2S)-2-acetylamino-3-methylvalerylamino]-4-[N-(S)-1-[N-(R)-1-[(1,3-benzothiazol-2-yl)carbonyl]-4-guanidinobutylcarbamoyl]-2-phenylethylcarbamoyl]butyric acid]",–,–,–,–,–,–,–,–,–,–,–,–,9.41,–
"N=C(N)NCCC[C@H](NC(=O)[C@H](Cc1ccccc1)NC(=O)[C@H](N)Cc1c[nH]c2ccccc12)C(=O)c1nc2ccccc2s1 [PK-1-18A1, N-[(S)-1-[(1,3-benzothiazol-2-yl)carbonyl]-4-guanidinobutyl](S)-2-[(R)-2-amino-3-(3-indolyl)propionylamino]-3-phenylpropionamide]",–,–,–,–,–,–,–,–,–,–,–,–,7.59,–
"N=C(N)NCCC[C@H](NC(=O)[C@H](Cc1ccccc1)NC(=O)[C@H](N)Cc1c[nH]c2ccccc12)C(=O)c1nc2ccc(C(=O)O)cc2s1 [PK-1-45A1, 2-[(S)-2-[(S)-2-[(R)-2-amino-3-(3-indolyl)propionylamino]-3-phenylpropionylamino]-5-guanidinovaleryl]-1,3-benzothiazole-6-carboxylic acid]",–,–,–,–,–,–,–,–,–,–,–,–,8.71,–
L-Tyr,3.17,11.59,16.47,31.93,16.18,31.87,22.79,7.75,22.39,12,17,14,–,–
